Laboratory results: patent US11426426B2, “Pharmaceutical composition for preventing or treating inflammatory diseases, containing nitrogen monoxide-sensitive acrylamide-based polymer” (POSTECH ACADEMY-INDUSTRY FOUNDATION, priority 2018, dated 2022)

How the values were obtained:
[1] = Nitric oxide scavenging ability (Griess reagent)
Method: In order to check whether the nitric oxide-cleavable crosslinker (NOCCL) produced according to Production Example 1 can actually scavenge nitric oxide, Griess reagent was used, and 100 μM nitric oxide and 10 μM nitric oxide were treated to check the scavenging ability of the nitric oxide-cleavable crosslinker. At this time, N,N′-methylene bisacrylamide (BIS) was used as a comparative group, and water was used as a control group.

red blood cells = experiment: Evaluation of hemolysis; format: cell-based, mice; settings: 1 mg/mL in DPBS; 1×10^8 mouse red blood cells; 4 hours at 37° C.; absorbance at 450 nm
Method: In order to check whether the nitric oxide-sensitive hydrogel has in vivo stability after being administered into the body, first, red blood cells were separated from the blood collected from mice. A DPBS solution including 1 mg/mL Example 1, the nitric oxide-cleavable crosslinker (NOCCL), and acrylamide was introduced into 1×10^8 cells of the red blood cells thus prepared, and the mixture was thoroughly mixed. This solution was left to stand for 4 hours in a constant temperature tank at 37° C. Next, the solution was centrifuged, subsequently the supernatant was transferred onto a 96-well plate, and the absorbance at 450 nm was measured to calculate the degree of hemolysis.

SMILES | nitric oxide scavenged as compared to the comparative group ([1]; 100 μM and 10 μM nitric oxide, comparative group BIS) | nitric oxide scavenging ability ([1]; high concentration (100 μM) of nitric oxide) | degree of hemolysis (red blood cells)
C=CC(=O)Nc1ccc(NC(=O)C=C)c(N)c1 [nitric oxide-cleavable crosslinker, N,N-(2-amino-1,4-phenylene) diacrylamide] | ≥ 30% | ≥ 50% | did not cause hemolysis
C=CC(N)=O [acrylamide] | – | – | up to 99%
